In US6878722B2, “Substituted cycloalkyl P1′ hepatitis C virus inhibitors” (Bristol-Myers Squibb Company, priority 2002, dated 2005):
Like-named read-outs stand apart in the source and are kept apart here.

What was measured:
[1] = molecular target: T1, HCV NS3/4A protease complex (BMS strain, genotype 1a) (Hepatitis C virus genotype 1a, UniProt P27958, C1454S); test: Recombinant HCV NS3/4A protease complex FRET peptide assay, BMS strain; type: biochemical; conditions: NS3/4A BMS Strain
T1 construct: DNA encoding the recombinant HCV NS3/4A protease complex (amino acids 1027 to 1711) for these strains; inferred from the pET21b vector and Ni-NTA purification; made in house; host or cells: Escherichia coli BL21 (DE3), pET21b
In short: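 Recombinant NS3/4A complex (aa 1027–1711) with C-terminal three-lysine tail, C1711G and C1454S, expressed in E. coli BL21(DE3) and purified by Ni-NTA then Superdex-S200. Inhibition of the complex from each strain measured in vitro by FRET peptide cleavage.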

[2] = test system: HCV replicon in Huh7 cells; test: HCV replicon cell-based assay (FRET); conditions: HCV replicon, read-out: EC50 range
In short: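 Huh7 cells stably carrying a genotype 1b HCV replicon (IRES-neo-EMCV-IRES-NS3-NS5B) were treated with compound for 4 days at 37 °C in 0.5% DMSO final. Lysates containing 10 μM FRET peptide RET S1 were read kinetically at 340/490 nm to give NS3 protease activity, from which EC50 was derived.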

T1 sequence (P27958 1658-1714, looked up, stated change not applied): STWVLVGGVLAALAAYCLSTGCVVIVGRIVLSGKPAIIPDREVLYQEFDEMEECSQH
T1 sequence (P27958 1027-1657, looked up, stated change not applied): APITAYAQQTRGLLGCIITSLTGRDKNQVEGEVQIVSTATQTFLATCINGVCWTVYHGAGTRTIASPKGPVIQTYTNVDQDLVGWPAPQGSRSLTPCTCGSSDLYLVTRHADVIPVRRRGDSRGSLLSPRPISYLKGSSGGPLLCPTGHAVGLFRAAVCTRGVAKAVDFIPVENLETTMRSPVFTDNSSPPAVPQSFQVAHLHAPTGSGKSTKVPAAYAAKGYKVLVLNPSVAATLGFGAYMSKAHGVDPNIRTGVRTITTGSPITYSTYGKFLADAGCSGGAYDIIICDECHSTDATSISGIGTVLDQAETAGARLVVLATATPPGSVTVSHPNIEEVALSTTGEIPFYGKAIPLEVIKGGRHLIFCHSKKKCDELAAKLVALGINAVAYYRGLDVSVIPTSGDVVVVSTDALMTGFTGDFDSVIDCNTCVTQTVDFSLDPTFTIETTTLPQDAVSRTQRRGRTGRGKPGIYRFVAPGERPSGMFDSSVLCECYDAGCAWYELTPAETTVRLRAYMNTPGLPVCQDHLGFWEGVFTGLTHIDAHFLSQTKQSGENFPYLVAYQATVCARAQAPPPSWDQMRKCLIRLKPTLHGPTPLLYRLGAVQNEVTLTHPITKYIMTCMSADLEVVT

C=C[C@@H]1C[C@]1(NC(=O)[C@@H]1C[C@@H](Oc2cc(-c3ccccc3)nc3cc(OC)ccc23)CN1C(=O)[C@@H](NC(=O)OC(C)(C)C)C(C)C)C(=O)NS(=O)(=O)C1(CCOC)CC1 [Compound 53, {1-[2-{1-[1-(2-Methoxy-ethyl)-cyclopropanesulfonylaminocarbonyl]-2-vinyl-cyclopropylcarbamoyl}-4-(7-methoxy-2-phenyl-quinolin-4-yloxy)-pyrrolidine-1-carbonyl]-2-methyl-propyl}-carbamic acid tert-butyl ester]
IC50 ([1]; IC50 range): < 50 nM
EC50 ([2]; Hepatitis C virus, Huh-7): < 50 nM

C=CCCCCCCCCC1(S(=O)(=O)NC(=O)C2(NC(=O)C3CC(Oc4cc(-c5ccccc5)nc5cc(OC)ccc45)CN3C(=O)C(NC(=O)OC(C)(C)C)C(C)(C)C)CC2C=C)CC1 (centres unmarked) [Compound 33]
IC50 ([1]; read-out: IC50 range): < 50 nM
EC50 [2]: 50 to 500 nM

C=C[C@@H]1C[C@]1(NC(=O)[C@@H]1C[C@@H](Oc2cc(-c3ccccc3)nc3cc(OC)ccc23)CN1C(=O)[C@@H](NC(=O)OC(C)(C)C)C(C)(C)C)C(=O)NS(=O)(=O)C1(CC(C)C)CC1 [Compound 31, {1-[2-[1-(1-Isobutyl-cyclopropanesulfonylaminocarbonyl)-2-vinyl-cyclopropylcarbamoyl]-4-(7-methoxy-2-phenyl-quinolin-4-yloxy)-pyrrolidine-1-carbonyl]-2,2-dimethyl-propyl}-carbamic acid tert-butyl ester]
IC50 ([1]; IC50 range): < 50 nM
EC50 ([2]; Hepatitis C virus, Huh-7): 50 to 500 nM

C=C[C@@H]1C[C@]1(NC(=O)C1CC(Oc2cc(-c3ccccc3)nc3cc(OC)ccc23)CN1C(=O)[C@@H](NC(=O)N(C)C(C)(C)C)C(C)(C)C)C(=O)NS(=O)(=O)C1(CC2CC2)CC1 (some centres unmarked) [Compound 120]
IC50 ([1]; IC50 range): < 50 nM
EC50 ([2]; Hepatitis C virus, Huh-7): 50 to 500 nM

C=CC1C[C@]1(NC(=O)[C@@H]1C[C@@H](Oc2cc(-c3ccccc3)nc3cc(OC)ccc23)CN1C(=O)[C@@H](NC(=O)OC(C)(C)C)C(C)(C)C)C(=O)NS(=O)(=O)C1(C(=O)NCCC)CC1 (stereo in doubt) [Compound 9, (1-{4-(7-Methoxy-2-phenylquinolin-4-yloxy)-2-[1-(1-propylcarbamoyl-cyclopropanesulfonylaminocarbonyl)-2-vinylcyclopropylcarbamoyl]pyrrolidine-1-carbonyl}-2,2-dimethyl-propyl)carbamic acid tert-butyl ester]
IC50 ([1]; IC50 range): < 50 nM
EC50 ([2]; Hepatitis C virus, Huh-7): < 50 nM

C=C[C@@H]1C[C@]1(NC(=O)[C@@H]1C[C@@H](Oc2cc(-c3ccccc3)nc3cc(OC)ccc23)CN1C(=O)[C@@H](NC(=O)OC(C)(C)C)C(C)C)C(=O)NS(=O)(=O)C1(COC)CC1 [Compound 54, {1-[2-[1-(1-Methoxymethyl-cyclopropanesulfonylaminocarbonyl)-2-vinyl-cyclopropylcarbamoyl]-4-(7-methoxy-2-phenyl-quinolin-4-yloxy)-pyrrolidine-1-carbonyl]-2-methyl-propyl]-carbamic acid tert-butyl ester]
IC50 ([1]; IC50 range): < 50 nM
EC50 ([2]; Hepatitis C virus, Huh-7): < 50 nM

COc1ccc2c(O[C@@H]3C[C@@H](C(=O)NC4(C(=O)NS(=O)(=O)C5(Cc6ccccc6)CC5)CC4)N(C(=O)[C@@H](NC(=O)OC(C)(C)C)C(C)(C)C)C3)cc(-c3ccccc3)nc2c1 [Compound 74, {1-[2-[1-(1-Benzyl-cyclopropanesulfonylaminocarbonyl)-cyclopropylcarbamoyl]-4-(7-methoxy-2-phenyl-quinolin-4-yloxy)-pyrrolidine-1-carbonyl]-2,2-dimethyl-propyl}-carbamic acid tert-butyl ester]
IC50 ([1]; IC50 range): 500 to 5000 nM
EC50 ([2]; Hepatitis C virus, Huh-7): 5000 to 50000 nM

C=C[C@@H]1C[C@]1(NC(=O)[C@@H]1C[C@@H](Oc2cc(-c3ccccc3)nc3cc(OC)ccc23)CN1C(=O)[C@@H](NC(=O)OC(C)(C)C)C(C)(C)C)C(=O)NS(=O)(=O)C1(CCOC)CC1 [Compound 35, {1-[2-{1-[1-(2-Methoxy-ethyl)-cyclopropanesulfonylaminocarbonyl]-2-vinyl-cyclopropylcarbamoyl}-4-(7-methoxy-2-phenyl-quinolin-4-yloxy)-pyrrolidine-1-carbonyl]-2,2-dimethyl-propyl}-carbamic acid tert-butyl ester]
IC50 ([1]; IC50 range): < 50 nM
EC50 ([2]; Hepatitis C virus, Huh-7): < 50 nM

C=C[C@@H]1C[C@]1(NC(=O)[C@@H]1C[C@@H](Oc2cc(-c3ccccc3)nc3cc(OC)ccc23)CN1C(=O)[C@@H](NC(=O)OC(C)(C)C)C(C)(C)C)C(=O)NS(=O)(=O)C1(Cl)CC1 [Compound 38, {1-[2-[1-(1-Chloro-cyclopropanesulfonylaminocarbonyl)-2-vinyl-cyclopropylcarbamoyl]-4-(7-methoxy-2-phenyl-quinolin-4-yloxy)-pyrrolidine-1-carbonyl]-2,2-dimethyl-propyl}-carbamic acid tert-butyl ester]
IC50 ([1]; IC50 range): < 50 nM
EC50 ([2]; Hepatitis C virus, Huh-7): < 50 nM

C=CCC1(S(=O)(=O)NC(=O)C2(NC(=O)[C@@H]3C[C@@H](Oc4cc(-c5ccccc5)nc5cc(OC)ccc45)CN3C(=O)[C@@H](NC(=O)OC(C)(C)C)C(C)(C)C)CC2)CC1 [Compound 75, {1-[2-[1-(1-Allyl-cyclopropanesulfonylaminocarbonyl)-cyclopropylcarbamoyl]-4-(7-methoxy-2-phenyl-quinolin-4-yloxy)-pyrrolidine-1-carbonyl]-2,2-dimethyl-propyl}-carbamic acid tert-butyl ester]
IC50 ([1]; IC50 range): < 50 nM
EC50 ([2]; Hepatitis C virus, Huh-7): 500 to 5000 nM

C=C[C@@H]1C[C@]1(NC(=O)[C@@H]1C[C@@H](Oc2ccnc3cc(Cl)ccc23)CN1C(=O)[C@@H](NC(=O)OC1CCCC1)C(C)(C)C)C(=O)NS(=O)(=O)C1(CCC)CC1 [Compound 64, (1-{4-(7-Chloro-quinolin-4-yloxy)-2-[1-(1-propyl-cyclopropanesulfonylaminocarbonyl)-2-vinyl-cyclopropylcarbamoyl]-pyrrolidine-1-carbonyl}-2,2-dimethyl-propyl)-carbamic acid cyclopentyl ester]
IC50 ([1]; IC50 range): < 50 nM
EC50 ([2]; Hepatitis C virus, Huh-7): 50 to 500 nM

C=C[C@@H]1C[C@]1(NC(=O)[C@@H]1C[C@@H](Oc2cc(-c3ccccc3)nc3cc(OC)ccc23)CN1C(=O)[C@@H](NC(=O)Oc1ccc(F)cc1)C(C)(C)C)C(=O)NS(=O)(=O)C1(Cc2ccccc2)CC1 [Compound 102]
IC50 ([1]; IC50 range): 50 to 500 nM
EC50 ([2]; Hepatitis C virus, Huh-7): 500 to 5000 nM

C=C[C@@H]1C[C@]1(NC(=O)[C@@H]1C[C@@H](Oc2cc(-c3ccccc3)nc3cc(OC)ccc23)CN1C(=O)[C@@H](NC(=O)Oc1ccc(OC)cc1)C(C)(C)C)C(=O)NS(=O)(=O)C1(Cc2ccccc2)CC1 [Compound 103]
IC50 ([1]; IC50 range): 50 to 500 nM
EC50 ([2]; Hepatitis C virus, Huh-7): 50 to 500 nM

C=C[C@@H]1C[C@]1(NC(=O)[C@@H]1C[C@@H](Oc2cc(-c3ccccc3)nc3cc(OC)ccc23)CN1C(=O)[C@@H](NC(=O)OC(C)(C)C)C(C)(C)C)C(=O)NS(=O)(=O)C1(Cc2ccccn2)CC1 [Compound 48, (1-{4-(7-Methoxy-2-phenyl-quinolin-4-yloxy)-2-[1-(1-pyridin-2-ylmethyl-cyclopropanesulfonylaminocarbonyl)-2-vinyl-cyclopropylcarbamoyl]-pyrrolidine-1-carbonyl}-2,2-dimethyl-propyl)-carbamic acid tert-butyl ester]
IC50 ([1]; IC50 range): < 50 nM
EC50 ([2]; Hepatitis C virus, Huh-7): < 50 nM

C=C[C@@H]1C[C@]1(NC(=O)C1C[C@@H](Oc2cc(-c3ccccc3)nc3cc(OC)ccc23)CN1C(=O)[C@@H](NC(=O)[C@@H](OC)c1ccccc1)C(C)(C)C)C(=O)NS(=O)(=O)C1(CC2CC2)CC1 (some centres unmarked) [Compound 119]
IC50 ([1]; IC50 range): < 50 nM
EC50 ([2]; Hepatitis C virus, Huh-7): 50 to 500 nM

COc1ccc2c(O[C@@H]3C[C@@H](C(=O)NC4(C(=O)NS(=O)(=O)C5([Si](C)(C)C)CC5)CC4)N(C(=O)[C@@H](NC(=O)OC(C)(C)C)C(C)(C)C)C3)cc(-c3ccccc3)nc2c1 [Compound 71]
IC50 ([1]; IC50 range): 50 to 500 nM
EC50 ([2]; Hepatitis C virus, Huh-7): 500 to 5000 nM

C=CC1C[C@]1(NC(=O)[C@@H]1C[C@@H](Oc2cc(-c3ccccc3)nc3cc(OC)ccc23)CN1C(=O)[C@@H](NC(=O)OC(C)(C)C)C(C)(C)C)C(=O)NS(=O)(=O)C1(C(=O)Nc2ccccc2)CC1 (stereo in doubt) [Compound 6, (1-{4-(7-Methoxy-2-phenyl-quinolin-4-yloxy)-2-[1-(1-phenylcarbamoyl-cyclopropane-sulfonylaminocarbonyl)-2-vinylcyclopropylcarbamoyl]-pyrrolidine-1-carbonyl}-2,2-dimethyl-propyl)carbamic acid tert-butyl ester]
IC50 ([1]; IC50 range): < 50 nM
EC50 ([2]; Hepatitis C virus, Huh-7): 50 to 500 nM

C=C[C@@H]1C[C@]1(NC(=O)[C@@H]1C[C@@H](Oc2cc(-c3ccccc3)nc3cc(OC)ccc23)CN1C(=O)[C@@H](NC(=O)OC(C)(C)C)C(C)C)C(=O)NS(=O)(=O)C1(CC2CC2)CC1 [Compound 52, {1-[2-[1-(1-Cyclopropylmethyl-cyclopropanesulfonylaminocarbonyl)-2-vinyl-cyclopropylcarbamoyl]-4-(7-methoxy-2-phenyl-quinolin-4-yloxy)-pyrrolidine-1-carbonyl]-2-methyl-propyl}-carbamic acid tert-butyl ester]
IC50 ([1]; IC50 range): < 50 nM
EC50 ([2]; Hepatitis C virus, Huh-7): < 50 nM

CCCC1(S(=O)(=O)NC(=O)C2(NC(=O)[C@@H]3C[C@@H](Oc4cc(-c5ccccc5)nc5cc(OC)ccc45)CN3C(=O)[C@@H](NC(=O)OC(C)(C)C)C(C)(C)C)CC23CC3)CC1 (mixture of isomers) [Compound 200, (1-{4-(7-Methoxy-2-phenyl-quinolin-4-yloxy)-2-[1-(1-propyl-cyclopropane-sulfonylaminocarbonyl)-spiro[2.2]pent-1-ylcarbamoyl]-pyrrolidine-1-carbonyl}-2,2-dimethyl-propyl)-carbamic acid tert-butyl ester]
IC50 ([1]; IC50 range): 50 to 500 nM
EC50 ([2]; Hepatitis C virus, Huh-7): 500 to 5000 nM
